The source of these data is patent US12129312B2, “Peptide compound, application thereof and composition containing same” (priority 2017, dated 2024).

Numbered stars: 1 amine (or outer) side, 2 acyl side, 3 side chain; on linkers, the order of the positions; unused ones are H or OH. Square brackets hold non-standard residues; d marks the D form. Peptide text beside a SMILES is read from it. * marks the point of attachment. X11 = O=C([C@@H](Cc1ccc(O)cc1)N(CCCc1ccccc1)[*:1])[*:2]; X7 = O=C([C@@H](Cc1ccc(O)cc1)NC(=S)NCCc1ccccc1)*; Phenylacetyl(4-Ph) = O=C(Cc1ccc(-c2ccccc2)cc1)*; Diphenylacetyl = O=C(C(c1ccccc1)c1ccccc1)*; Benzoyl(3,5-(OH)2) = O=C(c1cc(O)cc(O)c1)*; Pentanoyl(5-Ph) = O=C(CCCCc1ccccc1)*; Butanoyl(4-Ph) = O=C(CCCc1ccccc1)*; Hydrocinnamoyl = O=C(CCc1ccccc1)*; Tic = O=C(O)[C@@H]1Cc2ccccc2CN1; NHPhenethyl = c1ccc(CCN*)cc1; Pip = O=C(O)[C@@H]1CCCCN1; CO = O=C([*:1])[*:2] Bounds are passed on as bounds.

For the first experiment, the target named is T1, human Chemokine like receptor 1 (Homo sapiens, UniProt Q99788).
T1 construct: host or cells: U2OS (Tango CMKLR1-bla U2OS)
T1 sequence (Q99788 1-373): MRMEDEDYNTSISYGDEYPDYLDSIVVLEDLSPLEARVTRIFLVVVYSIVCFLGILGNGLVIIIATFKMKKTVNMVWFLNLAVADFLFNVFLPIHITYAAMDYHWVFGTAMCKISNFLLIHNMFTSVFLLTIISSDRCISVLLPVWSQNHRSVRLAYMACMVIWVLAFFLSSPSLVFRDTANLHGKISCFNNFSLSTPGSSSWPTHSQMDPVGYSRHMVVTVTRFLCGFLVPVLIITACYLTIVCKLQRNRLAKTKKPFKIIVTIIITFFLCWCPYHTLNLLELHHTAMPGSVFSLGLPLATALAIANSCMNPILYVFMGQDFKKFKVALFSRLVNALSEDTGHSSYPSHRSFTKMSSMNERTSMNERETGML
The experiment in a line: Activation of Tango CMKLR1-bla U2OS cells (beta-lactamase FRET reporter). The format is cell-based.
Conditions: not given
The protocol:
The polypeptide sequences described above are the polypeptide sequences disclosed in the patent JP2010-229093A of BANYU PHARMA CO LTD: (D-Tyr)-Phe-Leu-Pro-(D-Ser)-Gln-Phe-(D-Ala)-Tic-Ser was used as a positive control (SEQ ID NO: 102).
The activation of the compound on Tango™ CMKLR1-bla U2OS cells (Invitrogen Cat. nos. K1551) was tested.
The activation of each compound in the above experiments on Tango™ CMKLR1-bla U2OS cells was determined as follows:
Day 1: Cell Seeding on Plate
2. The medium was removed, and the cells were washed with DPBS twice, followed by addition of 3 mL of 0.05% trypsin, and placed in a 37° C., 5% CO2 incubator (Thermo Fisher, Waltham, Massachusetts, USA) for 3-5 minutes. After the cells were rounded, 3-5 mL of medium (medium formula: DMEM 90%, Dialyzed FBS 10%, NEAA 0.1 mM, HEPES (pH 7.3) 25 mM, Penicillin 100 U/mL, Streptomycin 100 μg/mL) was added to terminate digestion.
2. The digested cells were transferred to a 15 mL centrifuge tube (430790, Corning), centrifuged at 1000 rpm for 5 minutes (5810R, Eppendorf, Hamburg, Germany), and the supernatant was discarded.
3. 7 mL of medium (DMEM+10% FBS) was added, blowed into a single cell suspension, counted by a cell counter, and adjusted the cell suspension to a desired cell density of 250,000/mL with the medium.
4. The cell suspension was seeded into a 384-well cell plate (Corning 3712) in 40 μL/well to make the number of cells 10000 cells/well, and 32 μL of medium was added to the blank control.
5. The incubation was performed overnight at 37° C. under 5% CO2.
Day 2: Dosing and Testing
1. Preparation of 200× Compound Plate
1.1 The test compound was formulated into a 10 mM working solution in DMSO.
1.2 45 μL of 10 mM test compound was added to the 2nd column of rows A to P in the Echo-384 well plate. The compound was subjected to a 3-fold dilution with Precision (30 μL of DMSO was added to the 3rd to 11th columns; 15 μL of the drug solution was pipetted from the 2nd column to the 3rd column, blown and evenly mixed; then 15 μL of the drug solution was pipetted from the 3rd column to the 4th column, blown and evenly mixed; the drugs was subjected to a 3-fold dilution to obtain 10 concentrations in total). The 1st and 12th columns of the Echo-384 well plate were supplemented with 30 μL of DMSO.
2. Preparation of Intermediate Plate
500 nL, i.e., 0.5 μL of the diluted compound (or DMSO) in the 200× compound plate was transferred into the corresponding position of V-bottom 384-well plate with Echo. 20 μL of medium was added to each well, centrifuged, shaken and evenly mixed. The concentration of the drugs in each well of the 2nd to 11th column of intermediate plate (i.e., 5× compound plate) were shown in following Table 4.
3.1 The cell plate was taken out from the incubator and observed under a microscope. The diluted compound or DMSO in the intermediate plate was added to the cell plate in 10 μL/well in the corresponding cell plate, and 40 μL of medium was pre-filled in each well.
3.2 The cells were incubated at 37° C. under 5% CO2 for 4 hours.
4.1 1 mM CCF4-AM, solution B, Solution C, and Solution D were used to prepare an appropriate amount of 6× detection solution. The LiveBLAzer™-FRET B/G Loading kit (K1095, Thermo Fisher, Waltham, Massachusetts, USA) kit containing CCF-4AM and solutionB, solutionC, and solutionD was also purchased from invitrogen (K1157, Thermo Fisher, Waltham, Massachusetts, USA).
4.2 The cells were observed under a microscope and the cell plate was equilibrated to room temperature.
4.3 6 μL of CCF-4AM dissolved solution A, 60 μL of solution B, 904 μL of solution C and 30 μL of solution D were pipetted in an EP tube, blown, and evenly mixed to obtain a 6× detection solution. The prepared 6× detection solution was pipetted to a 384-well plate in 10 μL/well.
One may read the EC50 as the concentration needed to bring the measured effect to its halfway point. As to `CC(C)C[C@H](NC(=O)[C@H](Cc1ccccc1)NC(=O)[C@@H](Cc1ccc(O)cc1)NC(=O)Cc1ccc(-c2ccccc2)cc1)C(=O)N1CCC[C@H]1C(=O)N[C@H](CO)C(=O)N[C@@H](CCC(N)=O)C(=O)N[C@@H](Cc1ccccc1)C(=O)N[C@H](C)C(=O)N1Cc2ccccc2C[C@H]1C(=O)N[C@@H](CO)C(=O)O` [YW-77, 4-biphenylacetyl-(D-Tyr)-Phe-Leu-Pro-(D-Ser)-Gln-Phe-(D-Ala)-Tic-Ser-OH] ({Phenylacetyl(4-Ph)}-[dY]FLP[dS]QF[dA][Tic]S-OH), the EC50 came out at 53 nM.
On the same count and under the same terms, in the case of `CC(C)C[C@H](NC(=O)[C@H](Cc1ccccc1)NC(=O)[C@@H](Cc1ccc(O)cc1)NC(=O)C(c1ccccc1)c1ccccc1)C(=O)N1CCC[C@H]1C(=O)N[C@H](CO)C(=O)N[C@@H](CCC(N)=O)C(=O)N[C@@H](Cc1ccccc1)C(=O)N[C@H](C)C(=O)N1Cc2ccccc2C[C@H]1C(=O)N[C@@H](CO)C(=O)O` [YW-78, diphenylacetyl-(D-Tyr)-Phe-Leu-Pro-(D-Ser)-Gln-Phe-(D-Ala)-Tic-Ser-OH] (Diphenylacetyl-[dY]FLP[dS]QF[dA][Tic]S-OH) it was 26 nM; in that of `CC(C)C[C@H](NC(=O)[C@H](Cc1ccccc1)NC(=O)[C@H](N)Cc1ccc(O)cc1)C(=O)N1CCCC[C@H]1C(=O)N[C@H](CO)C(=O)N[C@@H](CCC(N)=O)C(=O)N[C@@H](Cc1ccccc1)C(=O)N[C@H](C)C(=O)N1Cc2ccccc2C[C@H]1C(=O)N[C@@H](CO)C(=O)O` [YW-96, (D-Tyr)-Phe-Leu-(S-Pip)-(D-Ser)-Gln-Phe-(D-Ala)-Tic-Ser] (H-[dY]FL[Pip][dS]QF[dA][Tic]S-OH; N-terminus assumed), 39 nM.

Staying with this experiment, now noted: determination by the method of Effect Embodiment 1; read-out: EC50.
`CC(C)C[C@H](NC(=O)[C@H](Cc1ccccc1)NC(=O)[C@@H](Cc1ccc(O)cc1)NC(=O)CCc1ccccc1)C(=O)N1CCC[C@H]1C(=O)N[C@H](CO)C(=O)N[C@@H](CCC(N)=O)C(=O)N[C@@H](Cc1ccccc1)C(=O)N[C@H](C)C(=O)N1Cc2ccccc2C[C@H]1C(=O)N[C@@H](CO)C(=O)O` [YW-71, 3-phenylpropanoyl-(D-Tyr)-Phe-Leu-Pro-(D-Ser)-Gln-Phe-(D-Ala)-Tic-Ser-OH] (Hydrocinnamoyl-[dY]FLP[dS]QF[dA][Tic]S-OH): the EC50 was found to be 31 nM.
For the molecule `CC(C)C[C@H](NC(=O)[C@H](Cc1ccccc1)NC(=O)[C@@H](Cc1ccc(O)cc1)NC(=O)NCCc1ccccc1)C(=O)N1CCC[C@H]1C(=O)N[C@H](CO)C(=O)N[C@@H](CCC(N)=O)C(=O)N[C@@H](Cc1ccccc1)C(=O)N[C@H](C)C(=O)N1Cc2ccccc2C[C@H]1C(=O)N[C@@H](CO)C(=O)O` [YW-72, Phenethylcarbamoyl-(D-Tyr)-Phe-Leu-Pro-(D-Ser)-Gln-Phe-(D-Ala)-Tic-Ser-OH] ({NHPhenethyl-CO}-[dY]FLP[dS]QF[dA][Tic]S-OH), the EC50 is 45 nM.
On the same count and under the same terms, in the case of `CC(C)C[C@H](NC(=O)[C@H](Cc1ccccc1)NC(=O)[C@@H](Cc1ccc(O)cc1)NC(=S)NCCc1ccccc1)C(=O)N1CCC[C@H]1C(=O)N[C@H](CO)C(=O)N[C@@H](CCC(N)=O)C(=O)N[C@@H](Cc1ccccc1)C(=O)N[C@H](C)C(=O)N1Cc2ccccc2C[C@H]1C(=O)N[C@@H](CO)C(=O)O` [YW-73, Phenethylcarbamothioyl-(D-Tyr)-Phe-Leu-Pro-(D-Ser)-Gln-Phe-(D-Ala)-Tic-Ser-OH] (X7-FLP[dS]QF[dA][Tic]S-OH) it was 28 nM; in that of `CC(C)C[C@H](NC(=O)[C@H](Cc1ccccc1)NC(=O)[C@@H](Cc1ccc(O)cc1)NCCCc1ccccc1)C(=O)N1CCC[C@H]1C(=O)N[C@H](CO)C(=O)N[C@@H](CCC(N)=O)C(=O)N[C@@H](Cc1ccccc1)C(=O)N[C@H](C)C(=O)N1Cc2ccccc2C[C@H]1C(=O)N[C@@H](CO)C(=O)O` [YW-74, 3-Phenylpropyl-(D-Tyr)-Phe-Leu-Pro-(D-Ser)-Gln-Phe-(D-Ala)-Tic-Ser-OH] (H-[X11]FLP[dS]QF[dA][Tic]S-OH), 6.2 nM; in that of `CC(C)C[C@H](NC(=O)[C@H](Cc1ccccc1)NC(=O)[C@@H](Cc1ccc(O)cc1)NC(=O)CCCc1ccccc1)C(=O)N1CCC[C@H]1C(=O)N[C@H](CO)C(=O)N[C@@H](CCC(N)=O)C(=O)N[C@@H](Cc1ccccc1)C(=O)N[C@H](C)C(=O)N1Cc2ccccc2C[C@H]1C(=O)N[C@@H](CO)C(=O)O` [YW-75, 4-Phenylbutanoyl-(D-Tyr)-Phe-Leu-Pro-(D-Ser)-Gln-Phe-(D-Ala)-Tic-Ser-OH] ({Butanoyl(4-Ph)}-[dY]FLP[dS]QF[dA][Tic]S-OH), 50 nM.
As to `CC(C)C[C@H](NC(=O)[C@H](Cc1ccccc1)NC(=O)[C@@H](Cc1ccc(O)cc1)NC(=O)CCCCc1ccccc1)C(=O)N1CCC[C@H]1C(=O)N[C@H](CO)C(=O)N[C@@H](CCC(N)=O)C(=O)N[C@@H](Cc1ccccc1)C(=O)N[C@H](C)C(=O)N1Cc2ccccc2C[C@H]1C(=O)N[C@@H](CO)C(=O)O` [YW-76, 5-phenylvaleroyl-(D-Tyr)-Phe-Leu-Pro-(D-Ser)-Gln-Phe-(D-Ala)-Tic-Ser-OH] ({Pentanoyl(5-Ph)}-[dY]FLP[dS]QF[dA][Tic]S-OH), the EC50 worked out at 43 nM.
Same read-out and setting: then `CC(C)C[C@H](NC(=O)[C@H](Cc1ccccc1)NC(=O)[C@@H](Cc1ccc(O)cc1)NC(=O)c1cc(O)cc(O)c1)C(=O)N1CCC[C@H]1C(=O)N[C@H](CO)C(=O)N[C@@H](CCC(N)=O)C(=O)N[C@@H](Cc1ccccc1)C(=O)N[C@H](C)C(=O)N1Cc2ccccc2C[C@H]1C(=O)N[C@@H](CO)C(=O)O` [YW-79, 3,5-dihydroxybenzoyl-(D-Tyr)-Phe-Leu-Pro-(D-Ser)-Gln-Phe-(D-Ala)-Tic-Ser-OH] ({Benzoyl(3,5-(OH)2)}-[dY]FLP[dS]QF[dA][Tic]S-OH), with 4.7 nM.
On the same count and under the same terms, then `CC(C)C[C@H](NC(=O)[C@H](Cc1ccccc1)NC(=O)[C@H](N)Cc1ccc(O)cc1)C(=O)N1CCC[C@H]1C(=O)N[C@H](CO)C(=O)N[C@@H](CCC(N)=O)C(=O)N[C@@H](Cc1ccccc1)C(=O)N[C@H](C)C(=O)N1CCCC[C@H]1C(=O)N[C@@H](CO)C(=O)O` [YW-90, (D-Tyr)-Phe-Leu-Pro-(D-Ser)-Gln-Phe-(D-Ala)-HoPro-Ser-OH] (H-[dY]FLP[dS]QF[dA][Pip]S-OH), with > 50000 nM; and `CC(C)C[C@H](NC(=O)[C@H](Cc1ccccc1)NC(=O)[C@H](N)Cc1ccccc1)C(=O)N1CCC[C@H]1C(=O)N[C@H](CO)C(=O)N[C@@H](CCC(N)=O)C(=O)N[C@@H](Cc1ccccc1)C(=O)N[C@H](C)C(=O)N1Cc2ccccc2C[C@H]1C(=O)N[C@@H](CO)C(=O)O` [YW-97, (D-Phe)-Phe-Leu-Pro-(D-Ser)-Gln-Phe-(D-Ala)-Tic-Ser-OH] (H-[dF]FLP[dS]QF[dA][Tic]S-OH), with 50 nM.
